Measurements reported in paper PMC6479711, “Chemical Constituents of Anacardium occidentale as Inhibitors of Trypanosoma cruzi Sirtuins” (Molecules, 2019).
Read-outs that look alike come from different tables or passages of the source.

Columns and labels:
[1] = test system: Human primary skin fibroblasts (hFIB); test: Host cell toxicity (AlamarBlue); type: cell-based; details: for hFIB CC50 ± SEM: hFIB viability 72 h after treatment
Description: (§1) Human primary skin fibroblasts (hFIB) were obtained from patient skin biopsy and cultured in Dulbecco’s Modified Eagle Medium (DMEM) supplemented with 10% fetal bovine serum (FBS) and Penicillin-Streptomycin (0.2 U/mL) (all from Gibco/Life Technologies, Grand Island, NY, USA). The cells were seeded on 96-well plates at 3 × 10^4 cells/mL and treated with the drugs for 72 h of incubation time. Following the treatments, cells were washed with saline solution twice, and cell viability was determined by the AlamarBlue assay (Thermo Fisher Scientific, Carlsbad, CA, USA), according to the manufacturer’s instructions. Colorimetric readings were performed after 24 h at 570 and 600 nm. Fifty-percent cytotoxic concentration (CC50) values were calculated using data points gathered from three independent experiments.

[2] = test system: intracellular amastigotes of T. cruzi in infected hFIB; test: In vitro T. cruzi infection assay (intracellular amastigotes in hFIB, high content imaging); type: cell-based, Trypanosoma cruzi; details: read-out: Amastigote EC50 ± SEM
Description: All experiments were performed with the Y strain of T. cruzi. […] The culture was washed with saline solution and infected with trypomastigotes (10 parasites:1 host cell). Following 24 h of incubation, the non-internalized parasites were removed by washing with saline solution, and fresh medium, with or without compounds at different concentrations, was added to the culture before the incubations proceeded for 72 h. Cells were then fixed and stained by the addition of 50 μL of a solution containing 4% paraformaldehyde and 4 μM Draq5 DNA dye (BioStatus, Shepshed, UK) per well. Plates were imaged in an Operetta High Content Imaging System (PerkinElmer, Waltham, MA, USA) confocal microscope using a 10X air objective. Nine images were collected from each well for reliable statistical analysis. The percentage of intracellular parasites was determined and compared to the negative control, and compound antiparasitic activity was also expressed as EC50. The reference drug, benznidazole, was used as the positive control at 50 µM. Each drug concentration was carried out in triplicate.

[3] = test system: Trypomastigote forms of T. cruzi (Y strain); test: Activity against trypomastigotes (viable parasite count); type: cell-based, Trypanosoma cruzi; details: for EC50: read-out: Trypomastigote EC50 ± SEM
Description: All experiments were performed with the Y strain of T. cruzi. Trypomastigote forms of T. cruzi were obtained from the supernatant of infected LLC-MK2 cells and maintained in DMEM supplemented with 10% FBS and Penicillin-Streptomycin (100 U/mL) (all from Gibco/Life Technologies) at 37 °C with 5% CO2.
Trypomastigotes were incubated in 96-well plates (2 × 10^6 cells/mL) in DMEM, in the presence or absence of the compounds at different concentrations for 24 h. […] Each compound concentration was tested in triplicate, and three independent experiments were performed. The reference drug, benznidazole, was used as the positive control.

[4] = Host cell toxicity (AlamarBlue); type: cell-based, human; details: human, hFIB viability 72 h after treatment, read-out: hFIB CC50 ± SEM
Description: as §1

[5] = test system: amastigote forms of T. cruzi in infected hFIB; test: In vitro drug combination of compound 2 and benznidazole in infected hFIB (Chou-Talalay CI); type: cell-based; details: Trypanosoma cruzi, 72 h, read-out: EC50 ± SD, alone
Description: The culture was washed with saline solution and infected with trypomastigotes (10 parasites:1 host cell). Following 24 h of incubation, the non-internalized parasites were removed by washing with saline solution, and fresh medium, with or without compounds at different concentrations, was added to the culture before the incubations proceeded for 72 h. Cells were then fixed and stained by the addition of 50 μL of a solution containing 4% paraformaldehyde and 4 μM Draq5 DNA dye (BioStatus, Shepshed, UK) per well. Plates were imaged in an Operetta High Content Imaging System (PerkinElmer, Waltham, MA, USA) confocal microscope using a 10X air objective. Nine images were collected from each well for reliable statistical analysis. The percentage of intracellular parasites was determined and compared to the negative control, and compound antiparasitic activity was also expressed as EC50. The reference drug, benznidazole, was used as the positive control at 50 µM. Each drug concentration was carried out in triplicate.

TcSir2rp1 = TcSir2rp1 (Trypanosoma cruzi, UniProt Q4DVL9); test: TcSir2rp1 deacetylase activity assay (fluorogenic peptide, NAD+); type: biochemical; details: recombinant enzyme; 30 min pre-incubation; sirtuin activity determined 4 h after incubation; read-out: TcSir2rp1 EC50 ± SEM
Description: Deacetylase assays were performed from the protocol established previously by [8]. In summary, the reaction was performed in two steps. In the first step, a synthetic peptide as the substrate (Abz-Gly-Pro-acetyl-Lys-Ser-Gln-EDDnp, where Abz is ortho-aminobenzoic acid and EDDnp is N-[2,4-dinitrophenyl]ethylenediamine) was dissolved in 50 µL of 25 mM Tris-HCl (pH 8.0), 137 mM NaCl, 2.7 mM KCl, and 1 mM MgCl2 containing 0.6 mM NAD^+ (Sigma-Aldrich). TcSir2rp1 or TcSir2rp3 were added and the reactions performed for 4 h at 30 °C. In the inhibition experiments, the enzyme was pre-treated for 30 min at room temperature with the indicated compounds and the addition of the substrate started the reaction. In the second step, the reactions were stopped with 50 µL of a solution containing 12 mM nicotinamide in 100 mM NaCl and 50 mM Tris-HCl (pH 8.0), in the absence or presence of 0.6 mg/mL trypsin (Sigma-Aldrich). After further incubation for 15 min, the fluorescence at 420 nm was read (excitation, 320 nm) in a SpectraMax M3 plate reader (Molecular Devices, Sunnyvale, CA, USA).

TcSir2rp3 = TcSir2rp3 (Trypanosoma cruzi, UniProt Q4E5B9, K2R); test: TcSir2rp3 deacetylase activity assay (fluorogenic peptide, NAD+); type: biochemical
Description: Recombinant TcSir2rp3 was obtained as described previously by. The TcSir2rp3 gene was amplified from the genomic DNA of the T. cruzi Y strain using the oligonucleotides TcSir2rp3_BamHI_F_5′-[…] AGG-3′ and TcSir2rp3_XhoI_R_5′-[…]-3′ and cloned into pET28a (Novagen, Itapira, Brazil). The recombinant vector was used to transform ArcticExpress DE3 bacteria (Agilent Technologies) and protein was expressed by induction with 0.1 mM IPTG at 12 °C.
Deacetylase assays were performed from the protocol established previously by. In summary, the reaction was performed in two steps. In the first step, a synthetic peptide as the substrate (Abz-Gly-Pro-acetyl-Lys-Ser-Gln-EDDnp, where Abz is ortho-aminobenzoic acid and EDDnp is N-[2,4-dinitrophenyl]ethylenediamine) was dissolved in 50 µL of 25 mM Tris-HCl (pH 8.0), 137 mM NaCl, 2.7 mM KCl, and 1 mM MgCl2 containing 0.6 mM NAD^+ (Sigma-Aldrich). TcSir2rp1 or TcSir2rp3 were added and the reactions performed for 4 h at 30 °C. In the inhibition experiments, the enzyme was pre-treated for 30 min at room temperature with the indicated compounds and the addition of the substrate started the reaction. […] After further incubation for 15 min, the fluorescence at 420 nm was read (excitation, 320 nm) in a SpectraMax M3 plate reader (Molecular Devices, Sunnyvale, CA, USA).

[6] = infected hFIB, 72 h after treatment
[7] = Y strain, 24 h after incubation with compounds
[8] = human primary skin fibroblasts (hFIB)
[9] = Trypanosoma cruzi, 72 h, infected hFIB, 72 h after treatment

TcSir2rp3, sequence (Q4E5B9 whole entry K2R): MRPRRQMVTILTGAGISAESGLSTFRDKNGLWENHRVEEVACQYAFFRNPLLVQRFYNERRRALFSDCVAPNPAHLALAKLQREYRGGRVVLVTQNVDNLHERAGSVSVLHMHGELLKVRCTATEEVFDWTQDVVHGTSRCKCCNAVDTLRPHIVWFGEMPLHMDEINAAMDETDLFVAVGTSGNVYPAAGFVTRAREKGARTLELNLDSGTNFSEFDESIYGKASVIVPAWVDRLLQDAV
TcSir2rp1, sequence (Q4DVL9 entry or part of it): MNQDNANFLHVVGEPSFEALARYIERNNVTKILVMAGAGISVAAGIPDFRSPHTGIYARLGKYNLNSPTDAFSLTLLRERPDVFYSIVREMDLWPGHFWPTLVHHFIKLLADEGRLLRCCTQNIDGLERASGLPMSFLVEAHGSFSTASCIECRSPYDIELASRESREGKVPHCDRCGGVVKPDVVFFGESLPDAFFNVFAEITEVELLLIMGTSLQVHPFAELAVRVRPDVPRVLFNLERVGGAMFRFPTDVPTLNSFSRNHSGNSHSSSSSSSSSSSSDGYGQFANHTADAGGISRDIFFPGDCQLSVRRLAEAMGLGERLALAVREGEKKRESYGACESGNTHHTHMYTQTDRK

Row | Compound | EC50 [2, 6] [µM] | CC50 at 72 h [4, 8] [µM] | SI (selectivity index), ratio of CC50 (hFIB) to EC50 (amastigote) [1] | EC50 [2, 9] [µM] | EC50 (TcSir2rp1) [µM] | hFIB CC50 ± SEM [1] | Trypomastigote EC50 ± SEM [3, 7] | EC50 (TcSir2rp3) [µM] | other results
1 | 3-(8Z)-8-Pentadecen-1-ylphenol [Compound 4] | 15.3 ± 2 | – | – | – | – | – | – | – | CC50 [1]: 45.47 ± 0.27 µM; EC50 [3, 7]: 43.5 ± 2.32 µM
2 | O=C(Cn1ccnc1[N+](=O)[O-])NCc1ccccc1 [Benznidazole, reference compound] | – | > 100 | >32 | – | – | – | – | – | EC50 [5]: 2.17 ± 0.09 µM; EC50 ([2]; Trypanosoma cruzi, 72 h): 3.13 ± 0.87 µM; EC50 ([3]; Trypanosoma cruzi, Y strain, 24 h after incubation with compounds): 11.4 ± 1.09 µM
3 | C=CC/C=C\C/C=C\CCCCCCCc1cc(O)cc(O)c1 [Compound 1, 5-(8Z,11Z)-8,11,14-Pentadecatrien-1-yl-1,3-benzenediol] | – | – | 4 | 11.8 ± 0.4 | – | – | – | – | CC50 at 72 h [4]: 47.17 ± 0.1 µM; EC50 ([3]; Trypanosoma cruzi, 24 h): 23.36 ± 0.12 µM
4 | CCC/C=C\C/C=C\CCCCCCCc1cccc(O)c1C(=O)O [Compound 5, 2-Hydroxy-6-(8Z,11Z)-8,11-pentadecadien-1-ylbenzoic acid] | 41.7 ± 5.53 | > 100 | – | ~40 | 23.3 ± 2.51 | not toxic | no effect | 6.08 ± 1.16 | –
5 | CCCCCC/C=C\CCCCCCCc1cccc(O)c1C(=O)O [Compound 6, 2-Hydroxy-6-(8Z)-8-pentadecenylbenzoic acid] | 42.4 ± 5.11 | > 100 | – | ~40 | 16.2 ± 4.88 | not toxic | no effect | 7.41 ± 0.65 | –
